Experimental findings from US20230082430A1 (C4 Therapeutics, Inc., priority 2019, published 2023) are described below.

For orientation: IC50 means the concentration needed to halve the response being measured.

The subject of this experiment is NCIH929.1 cells. Nature of the experiment: Cell viability assay for Table 2 (CellTiter-Glo 2.0, ATP quantification, 96 hr). Format: cell-based. Particulars: 96 h. An excerpt: Cell Viability Assay for Table 2
CellTiter-Glo® 2.0 Assay was purchased from Promega (Madison, Wis., USA). NCIH929.1 cell line was purchased from ATCC (Manassas, Va., USA). Cell culture flasks and 384-well microplates were acquired from VWR (Radnor, Pa., USA).
Background: ATP-based viability assays read luminescence as a measure of living cells.

[1] abbreviates: NCIH929.1 cell viability, 96 hr, top concentration 1 μM, 14 points half log titration, read-out: IC50.

Where a name gives a salt, the structure may show the parent alone. Read-outs that look alike come from different tables or passages of the source.

`O=C1CCC(N2C(=O)c3cccc4c(Cc5ccc(CN6CCN(c7ccccc7F)CC67CC7)cc5)ccc2c34)C(=O)N1` (stereo not drawn) [Compound 135, 3-[6-[[4-[[7-(2-fluorophenyl)-4,7-diazaspiro[2.5]octan-4-yl]methyl]phenyl]methyl]-2-oxo-benzo[cd]indol-1-yl]piperidine-2,6-dione]: under setting [1], the IC50 was less than 1 nM.
Regarding `C#CCNc1ccc2c3c(cccc13)C(=O)N2C1CCC(=O)NC1=O` (stereo not drawn) [Compound 136, 3-[2-oxo-6-(prop-2-ynylamino)benzo[cd]indol-1-yl]piperidine-2,6-dione], the IC50 under setting [1] is greater than 999 nM.
The same measure, in the same setting: the figure for `C#CCOc1ccc2c3c(cccc13)C(=O)N2C1CCC(=O)NC1=O` (stereo not drawn) [Compound 137, 3-(2-oxo-6-prop-2-ynoxy-benzo[cd]indol-1-yl)piperidine-2,6-dione] is less than 100 nM.
As for `O=C1CCC(N2C(=O)c3cccc4cccc2c34)C(=O)N1` (stereo not drawn) [Compound 139, 3-(2-oxobenzo[cd]indol-1(2H)-yl)piperidine-2,6-dione], the IC50 was less than 100 nM.
Regarding `CC(C)(C)OC(=O)N1CCC(n2cc(C(=O)c3ccc4c5c(cccc35)C(=O)N4C3CCC(=O)NC3=O)cn2)CC1` (stereo not drawn) [Compound 143, tert-butyl 4-(4-(1-(2,6-dioxopiperidin-3-yl)-2-oxo-1,2-dihydrobenzo[cd]indole-6-carbonyl)-1H-pyrazol-1-yl)piperidine-1-carboxylate], the IC50 under setting [1] is less than 999 nM.
For `Nc1ccc2c3c(cccc13)C(=O)N2C1CCC(=O)NC1=O` (stereo not drawn) [Compound 144, 3-(6-Amino-2-oxo-2H-benzo[cd]indol-1-yl)-piperidine-2,6-dione hydrochloride], the IC50 under setting [1] is less than 999 nM.
Same read-out and setting: the figure for `N#Cc1ccc2c3c(cccc13)C(=O)N2C1CCC(=O)NC1=O` (stereo not drawn) [Compound 145, 1-(2,6-dioxopiperidin-3-yl)-2-oxo-1,2-dihydrobenzo[cd]indole-6-carbonitrile] is greater than 999 nM.
Consider `O=C1CCC(N2C(=O)c3cccc4c(Cc5ccc(CN6C7COCC6C7)cc5)ccc2c34)C(=O)N1` (stereo not drawn) [Compound 146, 3-[6-[[4-(3-oxa-6-azabicyclo[3.1.1]heptan-6-ylmethyl)phenyl]methyl]-2-oxo-benzo[cd]indol-1-yl]piperidine-2,6-dione], for which the IC50 under setting [1] is less than 1 nM.
Consider `CC1(C(=O)N2CCC(Cc3ccc(Cc4ccc5c6c(cccc46)C(=O)N5C4CCC(=O)NC4=O)cc3)CC2)CCC1` (stereo not drawn) [Compound 150, 3-(6-(4-((1-(1-methylcyclobutane-1-carbonyl)piperidin-4-yl)methyl)benzyl)-2-oxobenzo[cd]indol-1(2H)-yl)piperidine-2,6-dione], for which the IC50 under setting [1] was less than 1 nM.
Still for that read-out and setting: the figure for `N#Cc1ccc(N2CCC(Cc3ccc(Cc4ccc5c6c(cccc46)C(=O)N5C4CCC(=O)NC4=O)cc3)CC2)c(F)c1` (stereo not drawn) [Compound 151, 4-(4-(4-((1-(2,6-dioxopiperidin-3-yl)-2-oxo-1,2-dihydrobenzo[cd]indol-6-yl)methyl)benzyl)piperidin-1-yl)-3-fluorobenzonitrile] is less than 1 nM; for `O=C1CCC(N2C(=O)c3cccc4c(Cc5ccc(CC6CCN(Cc7ccccc7)CC6)cc5)ccc2c34)C(=O)N1` (stereo not drawn) [Compound 152, 3-(6-(4-((1-benzylpiperidin-4-yl)methyl)benzyl)-2-oxobenzo[cd]indol-1(2H)-yl)piperidine-2,6-dione] it is less than 1 nM.
For `CC1(C(=O)N2CCC(n3cc(C(N)c4ccc5c6c(cccc46)C(=O)N5C4CCC(=O)NC4=O)cn3)CC2)CCC1` (stereo not drawn) [Compound 153, 3-(6-(amino(1-(1-(1-methylcyclobutane-1-carbonyl)piperidin-4-yl)-1H-pyrazol-4-yl)methyl)-2-oxobenzo[cd]indol-1(2H)-yl)piperidine-2,6-dione], the IC50 under setting [1] is less than 1 nM.
Take `CC(C)(C)OC(=O)N1CCC(n2cc(C(N)c3ccc4c5c(cccc35)C(=O)N4C3CCC(=O)NC3=O)cn2)CC1` (stereo not drawn) [Compound 154, tert-butyl 4-(4-(amino(1-(2,6-dioxopiperidin-3-yl)-2-oxo-1,2-dihydrobenzo[cd]indol-6-yl)methyl)-1H-pyrazol-1-yl)piperidine-1-carboxylate]: the IC50 under setting [1] is less than 1 nM.
In the case of `O=C1CCC(N2C(=O)c3cccc4c(Cc5ccc(CN6CCc7ccccc7C6)cc5)ccc2c34)C(=O)N1` (stereo not drawn) [Compound 155, 3-[6-[[4-(3,4-dihydro-1H-isoquinolin-2-ylmethyl)phenyl]methyl]-2-oxo-benzo[cd]indol-1-yl]piperidine-2,6-dione], the IC50 under setting [1] is less than 1 nM.
With `O=C1CCC(N2C(=O)c3cccc4c(Cc5ccc(CN6C7CCC6COC7)cc5)ccc2c34)C(=O)N1` (stereo not drawn) [Compound 156, 3-[6-[[4-(3-oxa-8-azabicyclo[3.2.1]octan-8-ylmethyl)phenyl]methyl]-2-oxo-benzo[cd]indol-1-yl]piperidine-2,6-dione], the IC50 under setting [1] was less than 1 nM.
As for `O=C1CCC(N2C(=O)c3cccc4c(Cc5ccc(CN6CCC(Cc7ccc(F)cc7)CC6)cc5)ccc2c34)C(=O)N1` (stereo not drawn) [Compound 157, 3-[6-[[4-[[4-[(4-fluorophenyl)methyl]-1-piperidyl]methyl]phenyl]methyl]-2-oxo-benzo[cd]indol-1-yl]piperidine-2,6-dione], the IC50 under setting [1] was less than 1 nM.
Regarding `CC(C)(C)C1CCN(Cc2ccc(Cc3ccc4c5c(cccc35)C(=O)N4C3CCC(=O)NC3=O)cc2)CC1` (stereo not drawn) [Compound 158, 3-[6-[[4-[(4-tert-butyl-1-piperidyl)methyl]phenyl]methyl]-2-oxo-benzo[cd]indol-1-yl]piperidine-2,6-dione], the IC50 under setting [1] is less than 1 nM.
Regarding `O=C1CCC(N2C(=O)c3cccc4c(Cc5ccc(CN6CCN(CC(F)(F)F)CC6)cc5)ccc2c34)C(=O)N1` (stereo not drawn) [Compound 161, 3-(2-Oxo-6-{4-[4-(2,2,2-trifluoro-ethyl)-piperazin-1-ylmethyl]-benzyl}-2H-benzo[cd]indol-1-yl)-piperidine-2,6-dione], the IC50 under setting [1] was less than 1 nM.
On to `O=C1CCC(N2C(=O)c3cccc4c(Cc5cnn(C6CCCCC6)c5)ccc2c34)C(=O)N1` (stereo not drawn) [Compound 162, 3-[6-[(1-cyclohexylpyrazol-4-yl)methyl]-2-oxo-benzo[cd]indol-1-yl]piperidine-2,6-dione], for which the IC50 under setting [1] is less than 1 nM.
Turning to `CC1(C(=O)N2CCC(n3cc(C4(c5ccc6c7c(cccc57)C(=O)N6C5CCC(=O)NC5=O)CC4)cn3)CC2)CCC1` (stereo not drawn) [Compound 163, 3-[6-[1-[1-[1-(1-methylcyclobutanecarbonyl)-4-piperidyl]pyrazol-4-yl]cyclopropyl]-2-oxo-benzo[cd]indol-1-yl]piperidine-2,6-dione], the IC50 under setting [1] is less than 1 nM.
The same measure, in the same setting: then `CC1(CN2CCC(n3cc(C4(c5ccc6c7c(cccc57)C(=O)N6C5CCC(=O)NC5=O)CC4)cn3)CC2)CCC1` (stereo not drawn) [Compound 164, 3-[6-[1-[1-[1-[(1-methylcyclobutyl)methyl]-4-piperidyl]pyrazol-4-yl]cyclopropyl]-2-oxo-benzo[cd]indol-1-yl]piperidine-2,6-dione], with less than 100 nM; and `CN(c1ccc(Cc2ccc3c4c(cccc24)C(=O)N3C2CCC(=O)NC2=O)cc1)C1CCN(c2ccc(C#N)cc2F)CC1` (stereo not drawn) [Compound 165, 4-[4-[4-[[1-(2,6-dioxo-3-piperidyl)-2-oxo-benzo[cd]indol-6-yl]methyl]-N-methyl-anilino]-1-piperidyl]-3-fluoro-benzonitrile], with less than 1 nM; and `N#Cc1ccc(N2CCC(Nc3ccc(Cc4ccc5c6c(cccc46)C(=O)N5C4CCC(=O)NC4=O)cc3)CC2)c(F)c1` (stereo not drawn) [Compound 166, 4-[4-[4-[[1-(2,6-dioxo-3-piperidyl)-2-oxo-benzo[cd]indol-6-yl]methyl]anilino]-1-piperidyl]-3-fluoro-benzonitrile], with less than 1 nM.
With `CC1(C(=O)N2CCN(c3ccc(Cc4ccc5c6c(cccc46)C(=O)N5C4CCC(=O)NC4=O)cc3)CC2)CCC1` (stereo not drawn) [Compound 167, 3-[6-[[4-[4-(1-methylcyclobutanecarbonyl)piperazin-1-yl]phenyl]methyl]-2-oxo-benzo[cd]indol-1-yl]piperidine-2,6-dione], the IC50 under setting [1] was less than 1 nM.
Turning to `CC1(CN2CCN(c3ccc(Cc4ccc5c6c(cccc46)C(=O)N5C4CCC(=O)NC4=O)cc3)CC2)CCC1` (stereo not drawn) [Compound 168, 3-[6-[[4-[4-[(1-methylcyclobutyl)methyl]piperazin-1-yl]phenyl]methyl]-2-oxo-benzo[cd]indol-1-yl]piperidine-2,6-dione], under setting [1], the IC50 is less than 1 nM.
Take `CC1(C(=O)N2CCC(c3ccc(Cc4ccc5c6c(cccc46)C(=O)N5C4CCC(=O)NC4=O)cc3)CC2)CCC1` (stereo not drawn) [Compound 169, 3-[6-[[4-[1-(1-methylcyclobutanecarbonyl)-4-piperidyl]phenyl]methyl]-2-oxo-benzo[cd]indol-1-yl]piperidine-2,6-dione]: the IC50 under setting [1] was less than 1 nM.
On the same count and under the same terms, then `CC1(CN2CCC(c3ccc(Cc4ccc5c6c(cccc46)C(=O)N5C4CCC(=O)NC4=O)cc3)CC2)CCC1` (stereo not drawn) [Compound 170, 3-[6-[[4-[1-[(1-methylcyclobutyl)methyl]-4-piperidyl]phenyl]methyl]-2-oxo-benzo[cd]indol-1-yl]piperidine-2,6-dione], with less than 1 nM; and `N#Cc1ccc(N2CCC(Oc3ccc(Cc4ccc5c6c(cccc46)C(=O)N5C4CCC(=O)NC4=O)cc3)CC2)c(F)c1` (stereo not drawn) [Compound 171, 4-[4-[4-[[1-(2,6-dioxo-3-piperidyl)-2-oxo-benzo[cd]indol-6-yl]methyl]phenoxy]-1-piperidyl]-3-fluoro-benzonitrile], with less than 1 nM; and `N#Cc1ccc(N2CCN(Cc3ccc(Cc4ccc5c6c(cccc46)C(=O)N5C4CCC(=O)NC4=O)cc3)C(=O)C2)c(F)c1` (stereo not drawn) [Compound 172, 4-[4-[[4-[[1-(2,6-dioxo-3-piperidyl)-2-oxo-benzo[cd]indol-6-yl]methyl]phenyl]methyl]-3-oxo-piperazin-1-yl]-3-fluoro-benzonitrile], with less than 1 nM.
On to `CC1(C(=O)N2CCC(n3cc(Sc4ccc5c6c(cccc46)C(=O)N5C4CCC(=O)NC4=O)cn3)CC2)CCC1` (stereo not drawn) [Compound 174, 3-[6-[1-[1-(1-methylcyclobutanecarbonyl)-4-piperidyl]pyrazol-4-yl]sulfanyl-2-oxo-benzo[cd]indol-1-yl]piperidine-2,6-dione], for which the half-inhibitory concentration (IC50) under setting [1] was less than 1 nM.
